In patent US9271978B2 (Zenith Epigenetics Corp., priority 2012, dated 2016):

Key:
Design in all cases: key: Active: Compounds with an IC50 value less than 30 μM were deemed to be active.; Not Active: Compounds with an IC50 value less than 30 μM were deemed to be active
[1] = biological target: T1, Brd4 bromodomain 1 (BRD4(1)) (Homo sapiens, UniProt O60885); experiment: Inhibition of tetra-acetylated histone H4 binding to Brd4 bromodomain 1 (TR-FRET); details: tetra-acetylated histone H4 peptide, active = IC50 <30 μM
T1 construct: Illustrative results with the first bromodomain of Brd4; made in house; host or cells: E. coli BL21 (DE3)
How it was run: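 N-terminally His-tagged bromodomains (200 nM), expressed in E. coli, were incubated with biotinylated tetra-acetylated histone H4 peptide (25-50 nM), Eu-cryptate streptavidin and XL665 anti-His antibody in HEPES pH 7.4 buffer with KF, 0.2% DMSO, 2 h at room temperature. Inhibition read as decreased 665/620 nm TR-FRET; IC50 from dose-response curves.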

c-myc = experiment: Inhibition of c-myc expression in MV4-11 cells (mRNA, real-time PCR); type: cell-based; details: Human AML MV4-11 cells, 3 h incubation
How it was run: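 MV4-11 cells (2.5×10^4) treated with compound or 0.1% DMSO for 3 h at 37 °C. c-myc mRNA measured by RT real-time PCR duplexed with cyclophilin. IC50 from dose–response curve.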

[2] = system: human AML MV-4-11 (CRL-9591) cells; experiment: Inhibition of cell proliferation in MV4-11 cells; type: cell-based; details: human AML MV-4-11 cells, 72 h; active = IC50 <30 μM
How it was run: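 Exponentially growing MV-4-11 cells (5×10^4/well) were treated immediately with two-fold dilutions of compound from 30 μM to 0.2 μM, in triplicate, for 72 h at 37° C, 5% CO2. Viability was measured by MTS absorbance at 490 nm after 3–4 h. Proliferation relative to DMSO after blank correction gave IC50.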

hIL-6 mRNA = experiment: Inhibition of hIL-6 mRNA transcription in U937 cells; type: cell-based, human; details: LPS stimulation, active = IC50 <30 μM
How it was run: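 U937 cells differentiated 3 days with 60 ng/mL PMA, pretreated 1 h with compound, then stimulated with 1 ug/mL E. coli LPS for 3 h at 37° C. hIL-6 mRNA quantified by one-step qRT-PCR, Ct normalized to internal control, expressed as fold induction relative to control.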

Compound	FRET activity (IC50 <30 μM) BRD4(1) [1]	c-myc activity (IC50 <30 μM) (c-myc)	Cell Proliferation activity (IC50 <30 μM) [2]	IL-6 activity (IC50 <30 μM) (hIL-6 mRNA)
Cc1noc(C)c1-c1cc(N)c(=O)n(Cc2ccccc2)c1 [Example 73, 3-Amino-1-benzyl-5-(3,5-dimethylisoxazol-4-yl)pyridin-2(1H)-one]	Active	Active	Active	Active
Cc1noc(C)c1-c1ccc(=O)n(Cc2ccc(Cl)cc2)c1 [Example 128, 1-(4-Chlorobenzyl)-5-(3,5-dimethylisoxazol-4-yl)pyridin-2(1H)-one]	Active	Active	Active	Active
Cc1noc(C)c1-c1ccc(=O)n([C@H](C)c2ccccc2)c1 [Example 134, (R)-5-(3,5-Dimethylisoxazol-4-yl)-1-(1-phenylethyl)pyridin-2(1H)-one]	Active	Active	Active	Active
Cc1noc(C)c1-c1ccc(=O)n(Cc2ccccc2)c1 [Example 56, 1-Benzyl-5-(3,5-dimethylisoxazol-4-yl)pyridin-2(1H)-one]	Active	Active	Active	Active

The remaining lines, values ahead:

FRET activity (IC50 <30 μM) BRD4(1) [1]	c-myc activity (IC50 <30 μM) (c-myc)	Cell Proliferation activity (IC50 <30 μM) [2]	IL-6 activity (IC50 <30 μM) (hIL-6 mRNA)	Compound
Active	Active	Active	Active	Cc1noc(C)c1-c1cc(N)c(=O)n(Cc2ccsc2)c1 [Example 219, 3-amino-5-(3,5-dimethylisoxazol-4-yl)-1-(thiophen-3-ylmethyl)pyridin-2(1H)-one]
Active	Active	Active	Active	Cc1noc(C)c1-c1cc(N)c(=O)n(Cc2ccc(Br)cc2)c1 [Example 241, 3-Amino-1-(4-bromobenzyl)-5-(3,5-dimethylisoxazol-4-yl)pyridin-2(1H)-one]
Active	Active	Active	Active	Cc1noc(C)c1-c1cc(N)c(=O)n(Cc2ccc(F)cc2)c1 [Example 180, 3-amino-5-(3,5-dimethylisoxazol-4-yl)-1-(4-fluorobenzyl)pyridin-2(1H)-one]
